From US7179934B2, “Amino acids with affinity for the α2δ-protein” (Warner-Lambert Company LLC, priority 2003, dated 2007)

Tested on: α2δ-subunit derived from porcine brain tissue
Experiment: radioligand binding assay using [3H]-gabapentin
Details: [3H]-gabapentin radioligand
Excerpt: The ability of compounds of the present invention to bind to the α2δ-subunit of a calcium channel can be determined using the following binding assay.
The radioligand binding assay using [^3H]-gabapentin and the α2δ-subunit derived from porcine brain tissue was used. See Nicolas S. Gee et al., “The novel anticonvulsant drug, gabapentin (Neurontin), binds to the α2δ subunit of a calcium channel,” J. Biol. Chem. 271 (10):5768–76 (1996). Compounds of the invention bind with nanomolar to micromolar affinity for the α2δ protein.

affinity to the α2δ protein: 75 nM
Structure (SMILES): CCCCC(CC)CCC(CN)C(=O)O (stereo not shown) [2-aminomethyl-5-ethyl-nonanoic acid]
